System: Plasmodium falciparum
Experiment: GSK_TCMDC: Inhibition of Plasmodium falciparum 3D7 in whole erythrocytes, using parasite LDH activity as an index of growth.
Assay type: functional, organism-based
Conditions: Plasmodium falciparum, 3D7

| Compound | XC50 |
| --- | --- |
| COc1ccc2nccc([C@@H](O)CN3CCC(NCc4ccc5c(c4)NC(=O)CS5)CC3)c2n1 | 747 nM |
| O=C(Nc1ccc(F)c(C(F)(F)F)c1)NC1CCN(CCCCCNC(=O)C2CC2c2ccc(Cl)c(Cl)c2)CC1 (stereo not given) | 663 nM |
| Cc1oc(-c2ccccc2)nc1CCOc1ccc(C[C@H](Nc2ccccc2C(=O)c2ccccc2)C(=O)NCc2ccccn2)cc1 | 884 nM |
| c1ccc(CCNc2ccnc(Nc3ccc4[nH]nnc4c3)n2)cc1 | 863 nM |
| COc1cc(C(=O)NC2CCC(CN3CCC(c4c[nH]c5ccccc45)CC3)CC2)cc(Cl)n1 (stereo not given) | 688 nM |
| c1ccc(COc2ccc(Nc3ncnc4cnc(-c5ccc(CNc6cccnc6)o5)cc34)cc2)cc1 | 857 nM |
| Cc1cccc2nc(-c3ccc(-c4ccc(NC(=O)Nc5ccsc5)cc4)s3)[nH]c12 | 113 nM |
| CCCCCCCN1CC[C@@H](CCCc2ccnc3ccc(OCCN4CCNCC4)cc23)[C@@H](CC)C1 | 771 nM |
| COc1ccc(O)c(C(=O)NCCc2ccc(OC)c(-c3ccc(C(C)(C)C)cc3)c2)c1 | 1030 nM |
| Cc1ccc(CN2CCN(c3cc4c(cc3Cl)CCN4C(=O)Cc3ccc(NC(=O)c4ccc(C(F)(F)F)cc4)cc3)CC2)cc1 | 935 nM |
| CN(C)CC(O)C(c1ccccc1)c1cccc(Br)c1 (stereo not given) | 164 nM |
| Cc1cccc2nc(-c3ccc(-c4ccc(NC(=O)NCc5ccccc5)cc4)s3)[nH]c12 | 768 nM |
| CN(CCN)Cc1cccc(-c2ccc(-c3nc4cc(C(F)(F)F)ccc4[nH]3)s2)c1 | 997 nM |
| N#Cc1ccc(C(=O)Nc2ccc(Cl)c(N3CCN(CCc4ccccc4)CC3)c2)cc1 | 929 nM |
| Cc1cccc2nc(-c3ccc(-c4cccc(CNCCCNS(C)(=O)=O)c4)s3)[nH]c12 | 1020 nM |
| O=C(Nc1cc(C(F)(F)F)ccc1N1CCOCC1)C(Cl)(Cl)Cl | 373 nM |
| Cc1ccccc1C1CCN(C2CCC(NC(=O)/C=C/c3ccc(C(F)(F)F)cc3)CC2)CC1 (stereo not given) | 1040 nM |
| O=S(=O)(Nc1cccc(CCN2CCC(N3CCCCC3)CC2)c1)c1ccc(Oc2ccccc2)nc1 | 928 nM |
| O=C(NC1CC1)c1cnc(N2CCC(Cc3ccccc3)CC2)c(Cl)c1 | 672 nM |
| COc1ccc(-c2cnc(N)c(-c3ccc(C(N)=O)cc3)c2)cc1OC | 897 nM |
| COc1ccc(N2CCN(CCCNC(=O)c3ccc(NC(=O)c4cc(Cl)cc(Cl)c4)cc3)CC2)c(OC)c1 | 269 nM |
| COc1ccc(Nc2ncc3c(-c4cccc(NC(=O)Cc5ccncc5)c4)c[nH]c3n2)cc1OC | 1230 nM |
| CN1CCN(Cc2cccc(-c3ccc4c(Nc5ccc(F)cc5Cl)ccnc4c3)c2)CC1 | 156 nM |
| COc1ccc(NC(=O)C2c3ccccc3C(=O)N(CC(C)C)C2c2cccs2)cc1OC (stereo not given) | 203 nM |

| Compound | XC50 |
| --- | --- |
| Cc1cccc(C)c1CNc1ccnc2ccccc12 | 1200 nM |
| Cc1ccc(-c2cc(C(=O)Nc3ccc(S(=O)(=O)N(C)Cc4ccccc4)cc3)[nH]n2)c(O)c1 | 845 nM |
| CC(Oc1c(C2CCN(CCCCNC(=O)c3ccc(-c4ccc(C#N)cc4)cc3)CC2)ccc2c1CCCC2)C(N)=O (stereo not given) | 678 nM |
| Clc1ccc(-c2cnc3ccc(NCc4ccncc4)nn23)cc1 | 891 nM |
| COc1ccc2cc(C=NNc3nc4ccccc4[nH]3)c(Cl)nc2c1 | 653 nM |
| CCN(c1ccc(F)cc1)S(=O)(=O)c1cc(Br)cc2c1N(C(=O)C1CC1)CC2 | 943 nM |
| C=CCN(c1nc(NC)nc(NCc2c(OC)cccc2OC)n1)C1CCCC1 | 1460 nM |
| CCCCCCCN1CC[C@@H](CCCc2ccnc3ccc(OCCC4CCNCC4)cc23)[C@@H](CC)C1 | 610 nM |
| O=C(NCC1CC1)C1CCN(C(c2ccccc2)c2nc3ccccc3s2)CC1 (stereo not given) | 1020 nM |
| N#Cc1ccc(/C=C/C(=O)NCCCCCN2CCN(C(=O)Nc3ccc(Cl)c(C(F)(F)F)c3)CC2)cc1 | 780 nM |
| Fc1ccc2[nH]ccc(=NN=Cc3ccccc3Cl)c2c1 | 922 nM |
| O=C(NCCc1ccccc1F)c1cc(Br)cc(N2CCN(c3ccncc3)CC2)c1 | 756 nM |
| OCc1ccc(-c2cncc(Nc3ccc(F)c(Cl)c3)c2)cc1 | 88.5 nM |
| COc1ccc(C(=O)CCC(=O)N(Cc2ccc(-c3ccc(CNCCc4ccc(S(C)(=O)=O)cc4)cn3)cc2)C2CCN(Cc3ccccc3)CC2)cc1F | 437 nM |
| CCOc1ccc(-c2cc3nc(C4CCNCC4)c(C(=O)Nc4ccc(C)cc4Cl)cn3n2)cc1 | 919 nM |
| CCN(CCO)CCc1cccc(Nc2nccc(-c3c(-c4ccc(NC(=O)C(C)(C)C)cc4)nn4ccccc34)n2)c1 | 714 nM |
| CN1CCC=C(C(=O)NCC(C)(C)c2nc(-c3ccc(Cl)c(O)c3)c(-c3ccncc3)[nH]2)C1 | 1000 nM |
| Brc1cnc(NC2=NCCN2)c(Br)c1 | 335 nM |
| Cc1ccc(NC(=O)c2ccc3ncccc3c2)cc1OC1CCN(Cc2ccc(F)cc2)CC1 | 944 nM |
| CCCCCCc1cc2cc(-c3csc(C=Cc4ccccc4)n3)c(=O)oc2cc1O | 970 nM |
| CCCCNc1c(CC)c(C)c(C#N)c2nc3ccccc3n12 | 385 nM |
| [O-][s+]1nc(NCCCN(Cc2cccs2)c2ccccn2)c(NCc2ccccc2)n1 (stereo not given) | 305 nM |
| CN1CCN(CCCN(Cc2ccc(-c3cccc(CNC4CCCC4)c3)cc2)C(=O)Nc2ccccc2)CC1 | 1120 nM |
| CC(C)COc1ccc(Cl)cc1Cc1ccc(-c2nc3cnc4ccccc4c3[nH]2)o1 | 1260 nM |

| Compound | XC50 |
| --- | --- |
| CC1(C)NC(N)=NC(=N)N1OCCc1cccc2ccccc12 | 3.2 nM |
| CN1CCC(Oc2ccc(Nc3nccc(NCC(O)c4ccccc4)n3)cc2Cl)CC1 (stereo not given) | 785 nM |
| CN1CCN(CCc2ccc(N/C=C3\C(=O)Nc4ccc5ncccc5c43)cc2)CC1 | 325 nM |
| Cc1cc(N/N=C/c2cccc([N+](=O)[O-])c2)c2ccc(C(F)(F)F)cc2n1 | 876 nM |
| CN(C)c1ccc(C=C2SC(=O)N=C2Nc2ccccc2)cc1 | 32.1 nM |
| CCOc1cc(C(=O)NCc2ccc(Cl)c(Cl)c2)ccc1-c1nc2cc(Cl)ccc2[nH]1 | 804 nM |
| NCC(NC(=O)c1ccc(-c2c[nH]c3ncccc23)s1)c1ccccc1 (stereo not given) | 546 nM |
| Cc1nc(-c2nc(NCc3ccccn3)ncc2-c2ccsc2)sc1C | 559 nM |
| CCc1ccc(CN2CCCCC(NC(=O)c3cc(-c4ccccc4F)cs3)C2)cc1 (stereo not given) | 1160 nM |
| O=C(Cc1cccnc1)Nc1cccc(-c2cccc(-c3nc4cc(C(F)(F)F)ccc4[nH]3)c2)c1 | 677 nM |
| COc1ccc(-c2ccc(NC(=O)c3cccc(C#N)c3)cc2)cc1CN1CCNCC1 | 728 nM |
| O=C(NCC1CCC(C(=O)NC2CCCc3ccccc32)CC1)c1ccc(O)c(-c2cccc([N+](=O)[O-])c2)c1 (stereo not given) | 942 nM |
| Clc1cc(Nc2ccnc3ccc(Br)cc23)ccc1Oc1ccc(Cl)c2ccccc12 | 634 nM |
| CCCCCCN1CCC(NCc2ccc(CN(C)C)cc2)CC1 | 1270 nM |
| COc1ccc(CCN(C)CCOc2ccc(NC(=O)c3ccc([N+](=O)[O-])c4c(=O)c5ccccc5[nH]c34)cc2)cc1OC | 927 nM |
| Cc1ccc(/C=C/C(=O)NC2CCC(N3CCC(c4ccccc4C)CC3)CC2)cc1F (stereo not given) | 1040 nM |
| Cc1cccc2nc(-c3cccc(-c4ccc(NC(=O)COc5ccccc5C(N)=O)cc4)c3)[nH]c12 | 889 nM |
| Cc1nnsc1C(=O)Nc1cccc(-c2ccc(-c3nc4cccc(C)c4[nH]3)s2)c1 | 1120 nM |
| COc1ccc2ncc(C#N)c(CCN3CCC(NCc4cnc5c(c4)OCCO5)CC3)c2n1 | 595 nM |
| COc1ccc(CNC2CCN(C)CC2)cc1-c1ccc(S(=O)(=O)NC2CCC2)s1 | 733 nM |
| Clc1ccc(Nc2nc3ccc(Cl)cc3nc2Nc2ccc(Cl)cc2)cc1 | 133 nM |
| O=C(Nc1cccc(-c2cccc(-c3nc4ccccc4[nH]3)c2)c1)c1csnn1 | 921 nM |
